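Compound exposure: 48 hours, 5 concentrations, 96-well plates. Abbreviation: GI50, concentration required for 50% inhibition of growth. TGI: total growth inhibition.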
Columns and labels:
Test in all cases: NCI-60 cell line screen, 48 h
ACHN renal = system: ACHN renal
BT-549 breast = system: BT-549 breast
CCRF-CEM leukemia = system: CCRF-CEM leukemia
HCT-116 colon = system: HCT-116 colon
HL-60(TB) leukemia = system: HL-60(TB) leukemia
IGROV1 ovarian = system: IGROV1 ovarian
KM12 colon = system: KM12 colon
M14 melanoma = system: M14 melanoma
OVCAR-4 ovarian = system: OVCAR-4 ovarian
SK-MEL-28 melanoma = system: SK-MEL-28 melanoma

SMILES | GI50 (ACHN renal) [µM] | TGI (ACHN renal) [µM] | GI50 (BT-549 breast) [µM] | TGI (BT-549 breast) [µM] | GI50 (CCRF-CEM leukemia) [µM] | TGI (CCRF-CEM leukemia) [µM] | GI50 (HCT-116 colon) [µM] | TGI (HCT-116 colon) [µM] | GI50 (HL-60(TB) leukemia) [µM] | TGI (HL-60(TB) leukemia) [µM] | GI50 (IGROV1 ovarian) [µM] | TGI (IGROV1 ovarian) [µM] | GI50 (KM12 colon) [µM] | TGI (KM12 colon) [µM] | GI50 (M14 melanoma) [µM] | TGI (M14 melanoma) [µM] | GI50 (OVCAR-4 ovarian) [µM] | TGI (OVCAR-4 ovarian) [µM] | GI50 (SK-MEL-28 melanoma) [µM] | TGI (SK-MEL-28 melanoma) [µM]
O=C(N/N=C/c1ccc(O)cc1O)c1cccnc1 | 1.47 | > 100 | 7.06 | 81.6 | 0.971 | > 100 | 0.876 | > 100 | 3.74 | > 100 | 0.776 | 23.6 | 3.62 | > 100 | 2.8 | 19.6 | 0.692 | 11.9 | 3.59 | 62.6
O=C(CCN1CCOCC1)Nc1cccc(-n2cc(-c3ccncc3)c(-c3ccc(Cl)c(O)c3)n2)c1 | 2.5 | 12.5 | 4.12 | 18.1 | 3.43 | 15.9 | 3.04 | 12 | 2.37 | 6.61 | 3.52 | 21.5 | 2.46 | 11.5 | 1.53 | 4.16 | 3.07 | 17.7 | 1.53 | 3.33
Cn1cc(-c2csc(-c3cn(C)c4ccc(F)cc34)n2)c2cnccc21 | 1.84 | 3.26 | 1.71 | 3.1 | 1.96 | 4.13 | 1.66 | 3.06 | 1.93 | 3.87 | 1.96 | 3.63 | 1.79 | 3.36 | 1.72 | 3.21 | 1.7 | 3.16 | 1.79 | 3.22
O=C1c2ccccc2C(=O)c2c(NCCN=Cc3ccccc3O)cccc21 | 3.4 | 16.3 | 2.81 | 8.51 | 1.43 | 3.88 | 3.64 | 15.3 | 0.235 | 3.89 | 2.57 | 10.3 | 2.93 | 8.37 | 7.44 | 32.7 | 2.79 | > 22.9 | 3.21 | 10.4
c1ccc(NCCSc2nc3ccccc3s2)cc1 | – | > 100 | – | > 100 | – | 31.7 | – | > 100 | – | > 100 | – | > 100 | – | > 100 | – | > 100 | – | > 100 | – | > 100
COc1ccc(-c2ccc(NNC(=O)c3ccc(F)cc3)nn2)cc1OC | > 100 | > 100 | 22.9 | > 100 | 38 | > 100 | > 100 | > 100 | 33.5 | > 100 | 63.3 | > 100 | > 100 | > 100 | > 100 | > 100 | 55.3 | > 100 | > 100 | > 100
c1ccc2c(c1)c1ccccc1c1ccccc21 | > 100 | > 100 | > 100 | > 100 | > 100 | > 100 | > 100 | > 100 | > 100 | > 100 | > 100 | > 100 | > 100 | > 100 | > 100 | > 100 | > 100 | > 100 | > 100 | > 100
CN1C(NNC(=O)c2cccnc2)=NS(=O)(=O)c2cc(Cl)ccc21 | > 100 | > 100 | > 100 | > 100 | > 100 | > 100 | > 100 | > 100 | > 100 | > 100 | > 100 | > 100 | > 100 | > 100 | > 100 | > 100 | > 100 | > 100 | > 100 | > 100
O=[N+]([O-])c1ccc(Sc2c3ccccc3nc3ccccc23)cn1 | – | 17.4 | – | 28.8 | – | 8.3 | – | 11.9 | – | > 61.7 | – | > 64.7 | – | 95.1 | – | 31.5 | – | 75.9 | – | 58.4
N#CC(C#N)=C1CCCOc2c1ccc1ccccc21 | > 100 | > 100 | 98.8 | > 100 | 23 | 63.7 | > 100 | > 100 | 16.7 | 36 | > 100 | > 100 | > 100 | > 100 | > 100 | > 100 | > 100 | > 100 | > 100 | > 100
COc1ccc2c(c1)C(C)Cc1c(ncnc1-n1cnc3ccccc31)N2C (configuration not stated) | 0.635 | 27.4 | 0.47 | 10.3 | 0.481 | 20.5 | 0.494 | 12.7 | 0.352 | 3.74 | 1.41 | 29.1 | 0.444 | 12.1 | 0.313 | 12.7 | 1.25 | 30.6 | 10.1 | 22.9
CS(=O)(=O)CS(=O)(=O)OCCCl | – | 524 | – | 181 | – | 687 | – | 661 | – | 541 | – | 911 | – | 1120 | – | 770 | – | 1040 | – | 1510
COc1ccc(-c2noc(N)c2-c2cc(OC)c3c(c2)OCO3)cc1 | 6.88 | > 100 | 3.01 | 61.9 | 1.45 | > 35.8 | 2.4 | > 48.3 | 1.64 | 7.6 | 6.8 | > 100 | 1.97 | > 100 | 1.3 | 7.02 | 24.3 | > 100 | 6.31 | > 100
Nc1c(C(=O)Nc2ccccc2Cl)sc2nc3c(cc12)C(=O)CCC3 | 15.9 | > 100 | > 100 | > 100 | > 100 | > 100 | 54.9 | > 100 | 3.72 | > 100 | > 100 | > 100 | 0.592 | > 100 | 1.06 | > 100 | > 27.5 | > 100 | 22.4 | > 100
COC(=O)[C@]12CC[C@@H](C)[C@H](C)[C@@H]1C1=CC[C@@H]3[C@@]4(C)C(C=O)=C[C@@](C)(COC(=O)c5ccco5)[C@@H]4[C@H](O)C[C@@]3(C)[C@]1(C)CC2 | 1.13 | 3.78 | 2.07 | 6.65 | 2.54 | 7.58 | 1.19 | 2.59 | 2.33 | 5.84 | 3.03 | > 100 | 1.83 | 4.5 | 0.305 | 2.6 | 2.38 | 28.2 | 0.0918 | 2.64
Cc1c2c(C(N)=O)nccc2c(C)c2c1c1ccccc1n2Cc1ccccc1 | – | 37.5 | – | 90.4 | – | 62.6 | – | 29 | – | 47 | – | 42.7 | – | 72.6 | – | > 100 | – | 7.47 | – | > 100
COc1ccc(-c2cc(Nc3ccnc(N4CCOCC4)n3)on2)cc1 | 0.74 | 13.6 | 0.802 | 15.1 | 0.267 | > 34.5 | 0.081 | 13 | 0.2 | 1.88 | 0.245 | 16.9 | 0.0893 | 12.3 | 0.0957 | 14.8 | 1.72 | 18.5 | 4.1 | 19.9
Clc1nc(Cl)c2ncn(Cc3ccccc3Cn3cnc4c(Cl)nc(Cl)nc43)c2n1 | 1.59 | 2.96 | 0.165 | 1.52 | 1.42 | 3.14 | 2.06 | 5.98 | 1.79 | 9.14 | 3.14 | 8.46 | 2.23 | 5.37 | 5.13 | 10 | 2 | 4.05 | 2.96 | 11.8
COc1cc(/C=C/C(=O)C(C(=O)/C=C/c2ccc(OC(=O)CCNC34CC5CC(CC(C5)C3)C4)c(OC)c2)C(=O)CCNC23CC4CC(CC(C4)C2)C3)ccc1OC(=O)CCNC12CC3CC(CC(C3)C1)C2 (configuration not stated) | 4.03 | 34.1 | 2.5 | 5.77 | 1.65 | 4.12 | 2.94 | 10.7 | 1.95 | 4.36 | – | – | 2.28 | 5.96 | 3.51 | 13.9 | 8.89 | 57.1 | 1.67 | 4.28
Cn1cc(S(=O)(=O)N2CCC3=Cc4c(cnn4-c4ccc(F)cc4)C[C@]3(C(=O)c3cc(C(F)(F)F)ccn3)C2)cn1 | > 100 | > 100 | 26.6 | > 100 | > 100 | > 100 | 11.1 | > 100 | > 100 | > 100 | 23.3 | > 100 | 75.8 | > 100 | > 100 | > 100 | > 100 | > 100 | > 100 | > 100
CC(C)(C)c1cc(C(=O)/C=C/c2ccc(C(=O)O)cc2)cc(C(C)(C)C)c1 | – | 15.5 | – | 6.61 | – | 9.48 | – | 10.4 | – | > 100 | – | 12.2 | – | 5.75 | – | 3.89 | – | 19 | – | 6.83
Cc1noc2c1-c1ccccc1C(c1ccc(Cl)cc1)=N[C@H]2CC(N)=O | 6.37 | > 100 | 10.9 | > 100 | 14.8 | > 100 | 5.34 | > 100 | 0.398 | > 33.8 | 6.03 | > 100 | 12.1 | > 100 | 2.37 | > 100 | 4.35 | > 100 | 7.38 | > 100
Cn1c(=S)c2[nH]c(SCCCc3ccccc3)nc2n(C)c1=O | – | > 100 | – | > 100 | – | 49.8 | – | > 100 | – | > 100 | – | > 100 | – | > 100 | – | > 100 | – | > 100 | – | > 100
COC(=O)C(=O)CC(=O)c1cccc(OC)c1 | – | > 100 | – | > 100 | – | > 100 | – | > 100 | – | > 100 | – | – | – | > 100 | – | > 100 | – | > 100 | – | > 100
NC(N)=N/N=C(\N=Nc1ccccc1)c1ccc(Cl)cc1 | 2.51 | 8.06 | 4.86 | 19.2 | 1.76 | 5.78 | 1.7 | 3.6 | 1.88 | 3.85 | 7.32 | 23 | 2.15 | 7.76 | 1.51 | 4.39 | 1.79 | 12.6 | 1.98 | 4.59
CNCCn1c(=O)c2cc(OC)c(OC)cc2c2cnc3cc4c(cc3c21)OCO4 | < 0.01 | 1.12 | 0.0309 | 1.79 | < 0.01 | 1.19 | < 0.01 | 0.135 | < 0.01 | 0.111 | 0.0276 | 1.76 | 0.0483 | 1.6 | < 0.01 | 1.36 | 0.0347 | 2.21 | – | –
CCc1nc(Cl)c(Cl)c(Cl)n1 | – | > 100 | – | > 100 | – | > 100 | – | – | – | > 100 | – | > 100 | – | > 100 | – | > 100 | – | > 100 | – | > 100
COc1cc(OC)c2sc(-c3ccc(-n4cncc4-c4cc(OC)c(OC)c(OC)c4)cc3)nc2c1 | 6.67 | > 100 | 5.23 | > 100 | 3.95 | > 100 | 3.92 | > 100 | 3.3 | > 100 | 5.87 | > 100 | 4.62 | > 100 | 7.91 | > 100 | 3.25 | > 100 | – | –

From PubChem BioAssay (NCI)
